Reference: PMC12211128, “Safety, tolerability, pharmacokinetic and pharmacodynamic effects of the muscarinic M1 positive allosteric modulator VU0467319 for Alzheimer’s disease: a single ascending-dose study in healthy participants” (Alzheimer's Research & Therapy, 2025)

System: healthy participants
Experiment: Conner's Continuous Performance Task (CPT)
Type: in vivo, human
Conditions: for CPT Omission Errors / CPT Perseverations / CPT Commission Errors / CPT Hit Response Time: mean (SD)
Method: (§1) The Conner’s Continuous Performance Task (CPT; [32]) tested sustained attention to a target. Participants saw a string of letters appearing one at a time on a computer screen. Participants were asked to press the spacebar whenever the target stimulus (any letter except for the X) appeared. Participants were asked to withhold responding when a X was presented, which is the non-target stimulus. A set of 15 outcome measures derived from the task report were recorded as key variables. These measures include Hit RT, Hit Standard Error, Commission, Omission and Perseveration errors, Sensitivity, Response style, and the Hit standard error across different interstimulus intervals.
Cognitive data: In this exploratory analysis, each outcome variable of the cognitive data was examined in a mixed model analysis of variance with one between-subjects factor of VU319 dose (0, 60, 120, 240, 400, 600 mg) and a within-subjects factor of testing session (pre-dose vs. post-dost administration). Post-hoc analysis compared each of the VU319 dose cohorts against the placebo group. Because the participants were healthy adults with normal cognitive function, we considered effects between no reductions in function to small improvement (d = 0.0–0.20) to be a positive result. For the food effect study, only the participants who received VU319 were examined due to the disproportionately small placebo group (n = 2). A within-subjects ANOVA including food condition (fasted/fed) and testing session (pre-dose vs. post-dose administration) was performed on each outcome variable.
as §1, with “(Conners et al., 2000))” for “[32])”

[1] = Food effect study 120 mg, Fasting, Pre-Drug, n = 9
[2] = Food effect study 120 mg, Fed, Post-Drug, n = 9
[3] = Food effect study 120 mg, Fed, Pre-Drug, n = 9

Cn1cc2c(-c3cc(F)c(CN4Cc5ncccc5C4=O)c(F)c3)cccc2n1 [VU319]
CPT Omission Errors [1]: 4.56 (10.4) | CPT Perseverations [1]: 3.89 (11.7) | CPT Commission Errors [2]: 12.3 (6.2) | CPT Hit Response Time [2]: 381.1 (71.8) ms | CPT Omission Errors [2]: 2 (4.24) | CPT Perseverations [2]: 1.78 (2.44) | CPT Commission Errors [3]: 11.1 (5.58) | CPT Hit Response Time [3]: 381.6 (59.56) ms | CPT Omission Errors [3]: 1.22 (1.48) | CPT Perseverations [3]: 0.44 (1.01) | CPT Commission Errors (SAD study, 60 mg, Post-Drug): 13.33 (4.37) | CPT Hit Response Time (SAD study, 60 mg, Post-Drug): 407.08 (66.44) ms | CPT Omission Errors (SAD study, 60 mg, Post-Drug): 3.33 (4.55) | CPT Perseverations (SAD study, 60 mg, Post-Drug): 0 (0) | CPT Commission Errors (SAD study, 60 mg, Pre-Drug): 12.83 (4.07) | CPT Hit Response Time (SAD study, 60 mg, Pre-Drug): 393.27 (46.65) ms | CPT Omission Errors (SAD study, 60 mg, Pre-Drug): 1 (1.27) | CPT Perseverations (SAD study, 60 mg, Pre-Drug): 0.33 (0.52) | CPT Commission Errors (SAD study, 120 mg, Post-Drug): 15.33 (5.92) | CPT Hit Response Time (SAD study, 120 mg, Post-Drug): 356.2 (29.58) ms | CPT Omission Errors (SAD study, 120 mg, Post-Drug): 4.67 (5.28) | CPT Perseverations (SAD study, 120 mg, Post-Drug): 1.5 (1.98) | CPT Commission Errors (SAD study, 120 mg, Pre-Drug): 15.5 (6.66) | CPT Hit Response Time (SAD study, 120 mg, Pre-Drug): 361.23 (27.25) ms | CPT Omission Errors (SAD study, 120 mg, Pre-Drug): 0.83 (0.75) | CPT Perseverations (SAD study, 120 mg, Pre-Drug): 0 (0) | CPT Commission Errors (SAD study, 240 mg, Post-Drug): 12 (1.55) | CPT Hit Response Time (SAD study, 240 mg, Post-Drug): 372.94 (64.52) ms | CPT Omission Errors (SAD study, 240 mg, Post-Drug): 2.33 (2.58) | CPT Perseverations (SAD study, 240 mg, Post-Drug): 0.83 (1.6) | CPT Commission Errors (SAD study, 240 mg, Pre-Drug): 11.33 (3.62) | CPT Hit Response Time (SAD study, 240 mg, Pre-Drug): 372.21 (43.06) ms | CPT Omission Errors (SAD study, 240 mg, Pre-Drug): 1 (1.27) | CPT Perseverations (SAD study, 240 mg, Pre-Drug): 0.5 (1.23) | CPT Commission Errors (SAD study, 400 mg, Post-Drug): 9.5 (3.08) | CPT Hit Response Time (SAD study, 400 mg, Post-Drug): 365.85 (33.44) ms | CPT Omission Errors (SAD study, 400 mg, Post-Drug): 1.67 (1.97) | CPT Perseverations (SAD study, 400 mg, Post-Drug): 0.33 (0.82) | CPT Commission Errors (SAD study, 400 mg, Pre-Drug): 10.33 (2.81) | CPT Hit Response Time (SAD study, 400 mg, Pre-Drug): 374.41 (25.8) ms | CPT Omission Errors (SAD study, 400 mg, Pre-Drug): 0.67 (1.2) | CPT Perseverations (SAD study, 400 mg, Pre-Drug): 0.17 (0.41) | CPT Commission Errors (SAD study, 600 mg, Post-Drug): 17 (8.49) | CPT Hit Response Time (SAD study, 600 mg, Post-Drug): 356.18 (45.08) ms | CPT Omission Errors (SAD study, 600 mg, Post-Drug): 1.5 (2.35) | CPT Perseverations (SAD study, 600 mg, Post-Drug): 1.5 (3.21) | CPT Commission Errors (SAD study, 600 mg, Pre-Drug): 13 (5.66) | CPT Hit Response Time (SAD study, 600 mg, Pre-Drug): 387.39 (51.74) ms | CPT Omission Errors (SAD study, 600 mg, Pre-Drug): 1.33 (3.27) | CPT Perseverations (SAD study, 600 mg, Pre-Drug): 0.33 (0.82) | CPT hit response time, dose by time interaction, effect size d (SAD study, p = 0.063, faster following higher doses): 1.19 | CPT, effects of food or time (food effect study, 120 mg): no significant effects of food or time
